Measured values reported in patent US20250236627A1, “CERTAIN OCTAHYDROFURO[3,4- B]PYRAZINES AS GLP-1 RECEPTOR MODULATORS” (ASTRAZENECA AB, priority 2021, published 2025).
pEC50, pIC50: −log10 of the molar value.

Experiments:
[1] = target: T1, human GLP-1R receptor (Homo sapiens, UniProt P43220, L260F); experiment: CHOK1 GLP-1R cAMP Assay; type: cell-based; details: CHO-K1 cell line stably expressing human GLP-1R; HTRF cAMP detection
T1 construct: expressed in transfected cells; host or cells: CHO-K1 (ATCC CCL-61)
T1 sequence (P43220 24-463 L260F): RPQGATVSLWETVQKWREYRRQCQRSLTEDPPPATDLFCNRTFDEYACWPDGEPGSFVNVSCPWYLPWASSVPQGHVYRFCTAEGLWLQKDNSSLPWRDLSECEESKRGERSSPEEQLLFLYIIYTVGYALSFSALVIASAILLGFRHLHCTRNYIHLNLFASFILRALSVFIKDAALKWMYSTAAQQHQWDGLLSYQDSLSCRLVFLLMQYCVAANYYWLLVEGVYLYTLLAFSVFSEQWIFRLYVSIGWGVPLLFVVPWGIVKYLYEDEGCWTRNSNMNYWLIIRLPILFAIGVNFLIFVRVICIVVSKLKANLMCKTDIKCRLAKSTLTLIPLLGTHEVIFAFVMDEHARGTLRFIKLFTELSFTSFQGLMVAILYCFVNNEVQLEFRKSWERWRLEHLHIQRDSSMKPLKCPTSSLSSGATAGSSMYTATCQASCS
How it was run: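 CHO-K1 cells, 800/well, stimulated 20 min at room temperature with compound in HEPES pH 7.4/HBSS/0.1% BSA plus IBMX (1 mM in the added buffer). cAMP measured by HTRF competitive immunoassay after ≥1 h, converted to pM via standard curve. EC50 from 4-parameter logistic fit; % effect relative to saturating GLP1(7-36)NH2.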

[2] = target: T2, endogenous human glucagon-like peptide 1 receptor (GLP-1R) (Homo sapiens, UniProt P43220); experiment: EndoC cAMP Accumulation Assay; type: cell-based; details: EndoC-βH1 human pancreatic β cell line; HTRF cAMP assay
T2 construct: endogenous human glucagon-like peptide 1 receptor (GLP-1R) in a pancreatic insulinoma cell line; host or cells: EndoC-βH1 human pancreatic β cell line
T2 sequence (P43220 24-463): as the sequence (P43220 24-463 L260F) above, with F237L counted along it
How it was run: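 Thawed EndoC-βH1 cells (3000 per well) were stimulated for 30 min at room temperature in HBSS/25 mM HEPES pH 7.4, 0.1% BSA and 0.5 mM IBMX. cAMP was measured by HTRF competitive immunoassay after 1 h. Responses were fitted by 4-parameter logistic as % activation relative to maximal GIP (82.5 nM), with basal cAMP as zero.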

[3] = target: T3, human phosphodiesterase-3A (Homo sapiens, UniProt Q14432); experiment: PDE3 Assay; type: biochemical; details: human recombinant enzyme expressed in Sf9 cells; formation of 5′AMP from cAMP
T3 construct: host or cells: Sf9 cells
T3 sequence (Q14432 whole entry): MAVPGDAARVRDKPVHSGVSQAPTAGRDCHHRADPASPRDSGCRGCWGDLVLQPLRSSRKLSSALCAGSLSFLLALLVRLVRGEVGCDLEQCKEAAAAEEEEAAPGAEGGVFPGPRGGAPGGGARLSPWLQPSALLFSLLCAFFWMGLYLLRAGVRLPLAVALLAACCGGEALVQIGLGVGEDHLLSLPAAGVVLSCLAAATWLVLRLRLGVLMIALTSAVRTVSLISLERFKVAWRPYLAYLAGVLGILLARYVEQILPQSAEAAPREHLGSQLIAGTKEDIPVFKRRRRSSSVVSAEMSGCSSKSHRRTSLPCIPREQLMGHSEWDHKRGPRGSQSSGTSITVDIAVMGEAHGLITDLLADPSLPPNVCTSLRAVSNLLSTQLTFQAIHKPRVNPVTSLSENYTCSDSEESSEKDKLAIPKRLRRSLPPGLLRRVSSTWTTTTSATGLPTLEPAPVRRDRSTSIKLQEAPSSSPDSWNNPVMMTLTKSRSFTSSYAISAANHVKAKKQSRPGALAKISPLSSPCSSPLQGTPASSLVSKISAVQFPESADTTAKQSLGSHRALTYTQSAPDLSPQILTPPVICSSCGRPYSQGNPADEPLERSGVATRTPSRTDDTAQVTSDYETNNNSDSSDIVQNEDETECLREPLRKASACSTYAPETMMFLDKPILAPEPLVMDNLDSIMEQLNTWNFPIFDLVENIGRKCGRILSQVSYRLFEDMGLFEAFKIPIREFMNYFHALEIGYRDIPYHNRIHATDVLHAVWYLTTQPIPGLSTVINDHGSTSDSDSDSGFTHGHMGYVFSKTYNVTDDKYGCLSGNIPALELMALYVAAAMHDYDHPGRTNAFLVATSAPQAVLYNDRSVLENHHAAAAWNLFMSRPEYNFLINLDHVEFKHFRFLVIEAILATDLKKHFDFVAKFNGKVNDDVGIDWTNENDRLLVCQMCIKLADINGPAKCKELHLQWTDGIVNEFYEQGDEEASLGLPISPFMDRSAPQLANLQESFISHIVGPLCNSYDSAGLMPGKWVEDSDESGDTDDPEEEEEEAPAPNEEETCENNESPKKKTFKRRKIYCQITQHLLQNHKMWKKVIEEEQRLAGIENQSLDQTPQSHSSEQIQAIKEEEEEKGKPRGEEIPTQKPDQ
Description: Evaluation of the effects of compounds on the activity of the human phosphodiesterase-3A is quantified by measuring the formation of 5′AMP from cAMP using a human recombinant enzyme expressed in Sf9 cells.
The test compound, reference compound or water (control) are added to a buffer containing 40 mM Tris/HCl (pH 7.4) and 8 mM MgCl2, 450 nM cAMP and 0.25 μCi [^3H]cAMP.
Thereafter, the reaction is initiated by addition of the enzyme (about 1 U) and the mixture is incubated for 20 min at 22° C.
For basal control measurements, the enzyme is omitted from the reaction mixture.
Following incubation SPA beads are added. After 30 min at 22° C. under shaking, the amount of [^3H]5′AMP is quantified with a scintillation counter (Topcount, Packard).
The results are expressed as a percent inhibition of the control enzyme activity. The standard inhibitory reference compound is milrinone (CAS number 78415-72-2), which is tested in each experiment at several concentrations to obtain an inhibition curve from which its IC50 value is calculated.

| Compound | pEC50 [1] | pEC50 [2] | pIC50 [3] |
| --- | --- | --- | --- |
| COc1cc(C(=O)O)cc2c1nc(CN1CCN(c3cccc4c3O[C@@](C)(c3ccc(Cl)cn3)O4)[C@@H]3COC[C@@H]31)n2C[C@@H]1CCO1 (relative stereo) [Example 1b, 2-((4aR*,7aS*)-4-((R*)-2-(5-Chloropyridin-2-yl)-2-methylbenzo[d][1,3]dioxol-4-yl)hexahydrofuro[3,4-b]pyrazin-1(2H)-yl)methyl)-4-methoxy-1-(((S)-oxetan-2-yl)methyl)-1H-benzo[d]imidazole-6-carboxylic acid] | 8.74 | 8.51 | < 4.00 |
| COc1cc(C(=O)O)cc2c1nc(CN1CCN(c3cccc4c3O[C@@](C)(c3ccc(Cl)cn3)O4)[C@@H]3COC[C@@H]31)n2C[C@@H]1CCCO1 (relative stereo) [Example 2a, 2-((4aR*,7aS*)-4-((R*)-2-(5-Chloropyridin-2-yl)-2-methylbenzo[d][1,3]dioxol-4-yl)hexahydrofuro[3,4-b]pyrazin-1(2H)-yl)methyl)-4-methoxy-1-(((S)-tetrahydrofuran-2-yl)methyl)-1H-benzo[d]imidazole-6-carboxylic acid] | 8.42 | 8.51 | < 4.00 |
| Cc1nccn1CCn1c(CN2CCN(c3cccc4c3O[C@@](C)(c3ccc(Cl)cc3F)O4)[C@@H]3COC[C@@H]32)nc2c(F)cc(C(=O)O)cc21 (single isomer, unassigned) [Example 17] | 7.85 | 8.35 |  |
| Cc1nccn1CCn1c(CN2CCN(c3cccc4c3O[C@@](C)(c3ccc(Cl)cc3F)O4)[C@@H]3COC[C@@H]32)nc2c(Cl)cc(C(=O)O)cc21 (single isomer, unassigned) [Example 18] | 7.59 | 8.21 |  |
| C[C@]1(c2ccc(Cl)cc2F)Oc2cccc(N3CCN(Cc4nc5c(Cl)cc(C(=O)O)cc5n4Cc4cocn4)[C@H]4COC[C@H]43)c2O1 (single isomer, unassigned) [Example 19] | 7.60 | 8.13 |  |
| C[C@]1(c2ccc(Cl)cn2)Oc2cccc(N3CCN(Cc4nc5c(Cl)cc(C(=O)O)cc5n4CC4(CC#N)CC4)[C@H]4COC[C@H]43)c2O1 (single isomer, unassigned) [Example 24] | 8.51 | 8.37 |  |
| C[C@]1(c2ccc(Cl)cn2)Oc2cccc(N3CCN(Cc4nc5ccc(C(=O)O)cc5n4CC4(C#N)CC4)[C@H]4COC[C@H]43)c2O1 (single isomer, unassigned) [Example 26] | 8.44 | 7.96 |  |
| C[C@]1(c2ccc(Cl)cn2)Oc2cccc(N3CCN(Cc4nc5c(Cl)cc(C(=O)O)cc5n4CCn4cccn4)[C@H]4COC[C@H]43)c2O1 (single isomer, unassigned) [Example 27] | 7.09 | 7.70 |  |
| N#Cc1ccc(COc2cccc(C3CCN(Cc4nc5ccc(C(=O)O)cc5n4C[C@@H]4CCO4)CC3)n2)c(F)c1 [Ref Comp B, reference compound] |  |  | 4.96 |

More lines, now with the values ahead:

| pEC50 [1] | pEC50 [2] | pIC50 [3] | Compound |
| --- | --- | --- | --- |
| 8.66 | 8.02 | < 4.00 | C[C@]1(c2ccc(Cl)cn2)Oc2cccc(N3CCN(Cc4nc5ccc(C(=O)O)cc5n4C[C@@H]4CCO4)[C@H]4COC[C@H]43)c2O1 (single isomer, unassigned) [Example 5b, 2-(((4aR*,7aS*)-4-((R*)-2-(5-Chloropyridin-2-yl)-2-methylbenzo[d][1,3]dioxol-4-yl)hexahydrofuro[3,4-b]pyrazin-1(2H)-yl)methyl)-1-(((S)-oxetan-2-yl)methyl)-1H-benzo[d]imidazole-6-carboxylic acid] |
| 6.82 | 6.25 |  | C[C@]1(c2ccc(Cl)cc2F)Oc2cccc(N3CCN(Cc4nc5c(Cl)cc(C(=O)O)cc5n4C[C@@H]4CCO4)[C@H]4COC[C@H]43)c2O1 (single isomer, unassigned) [Example 15c, 4-Chloro-2-(((4aR*,7aS*)-4-((R*)-2-(4-chloro-2-fluorophenyl)-2-methylbenzo[d][1,3]dioxol-4-yl)hexahydrofuro[3,4-b]pyrazin-1(2H)-yl)methyl)-1-(((S)-oxetan-2-yl)methyl)-1H-benzo[d]imidazole-6-carboxylic acid] |
| 6.72 | 6.80 |  | C[C@]1(c2ccc(Cl)cc2F)Oc2cccc(N3CCN(Cc4nc5c(Cl)cc(C(=O)O)cc5n4C[C@@H]4CCO4)[C@H]4COC[C@H]43)c2O1 (single isomer, unassigned) [Example 15d, 4-Chloro-2-(((4aR*,7aS*)-4-((R*)-2-(4-chloro-2-fluorophenyl)-2-methylbenzo[d][1,3]dioxol-4-yl)hexahydrofuro[3,4-b]pyrazin-1(2H)-yl)methyl)-1-(((S)-oxetan-2-yl)methyl)-1H-benzo[d]imidazole-6-carboxylic acid] |
| 8.92 | 8.64 |  | C[C@]1(c2ccc(Cl)cc2F)Oc2cccc(N3CCN(Cc4nc5c(F)cc(C(=O)O)cc5n4C[C@@H]4CCO4)[C@H]4COC[C@H]43)c2O1 (single isomer, unassigned) [Example 16a, 2-(((4aR*,7aS*)-4-((R*)-2-(4-Chloro-2-fluorophenyl)-2-methylbenzo[d][1,3]dioxol-4-yl)hexahydrofuro[3,4-b]pyrazin-1(2H)-yl)methyl)-4-fluoro-1-(((S)-oxetan-2-yl)methyl)-1H-benzo[d]imidazole-6-carboxylic acid] |
| 6.92 | 6.57 |  | C[C@]1(c2ccc(Cl)cc2F)Oc2cccc(N3CCN(Cc4nc5c(F)cc(C(=O)O)cc5n4C[C@@H]4CCO4)[C@H]4COC[C@H]43)c2O1 (single isomer, unassigned) [Example 16b, 2-(((4aR*,7aS*)-4-((R*)-2-(4-Chloro-2-fluorophenyl)-2-methylbenzo[d][1,3]dioxol-4-yl)hexahydrofuro[3,4-b]pyrazin-1(2H)-yl)methyl)-4-fluoro-1-(((S)-oxetan-2-yl)methyl)-1H-benzo[d]imidazole-6-carboxylic acid] |
| 6.77 | 6.36 |  | C[C@]1(c2ccc(Cl)cc2F)Oc2cccc(N3CCN(Cc4nc5c(F)cc(C(=O)O)cc5n4C[C@@H]4CCO4)[C@H]4COC[C@H]43)c2O1 (single isomer, unassigned) [Example 16c, 2-(((4aR*,7aS*)-4-((R*)-2-(4-Chloro-2-fluorophenyl)-2-methylbenzo[d][1,3]dioxol-4-yl)hexahydrofuro[3,4-b]pyrazin-1(2H)-yl)methyl)-4-fluoro-1-(((S)-oxetan-2-yl)methyl)-1H-benzo[d]imidazole-6-carboxylic acid] |
| 6.80 | 6.57 |  | C[C@]1(c2ccc(Cl)cc2F)Oc2cccc(N3CCN(Cc4nc5c(F)cc(C(=O)O)cc5n4C[C@@H]4CCO4)[C@H]4COC[C@H]43)c2O1 (single isomer, unassigned) [Example 16d, 2-(((4aR*,7aS*)-4-((R*)-2-(4-Chloro-2-fluorophenyl)-2-methylbenzo[d][1,3]dioxol-4-yl)hexahydrofuro[3,4-b]pyrazin-1(2H)-yl)methyl)-4-fluoro-1-(((S)-oxetan-2-yl)methyl)-1H-benzo[d]imidazole-6-carboxylic acid] |
| 6.82 | 6.39 |  | C[C@]1(c2ccc(Cl)cc2F)Oc2cccc(N3CCN(Cc4nc5c(F)cc(C(=O)O)cc5n4Cc4cocn4)[C@H]4COC[C@H]43)c2O1 (single isomer, unassigned) [Example 20a] |
| 8.14 | 8.00 |  | C[C@]1(c2ccc(Cl)cc2F)Oc2cccc(N3CCN(Cc4nc5c(F)cc(C(=O)O)cc5n4Cc4cocn4)[C@H]4COC[C@H]43)c2O1 (single isomer, unassigned) [Example 20b] |
| 6.77 | 6.62 |  | C[C@]1(c2ccc(Cl)cn2)Oc2cccc(N3CCN(Cc4nc5c(F)cc(C(=O)O)cc5n4CC4(C#N)CC4)[C@H]4COC[C@H]43)c2O1 (single isomer, unassigned) [Example 22b] |
| 6.85 | 6.24 |  | C[C@]1(c2ccc(Cl)cn2)Oc2cccc(N3CCN(Cc4nc5c(F)cc(C(=O)O)cc5n4CC4(C#N)CC4)[C@H]4COC[C@H]43)c2O1 (single isomer, unassigned) [Example 22c] |
| 7.11 | 6.72 |  | C[C@]1(c2ccc(Cl)cn2)Oc2cccc(N3CCN(Cc4nc5c(Cl)cc(C(=O)O)cc5n4CC4(C#N)CC4)[C@H]4COC[C@H]43)c2O1 (single isomer, unassigned) [Example 23b] |
